Earlier results as cited in patent publication US6689588B1, “Garlic alliinase covalently bound to carrier for continuous production of allician” (Yeda Research and Development Co. Ltd., priority 1996, dated 2004).

What was measured:
bacteria, fungi, amebae = conditions: Cavallito et al., 1944; Barone and Tansey, 1977; Mirelman et al., 1987
[1] = Cavallito et al., 1944

For `C=CCS[S+]([O-])CC=C` (centres unmarked) [allicin, thio-2-propene-1-sulfinic acid S-allyl ester], the antimicrobial activity (bacteria, fungi, amebae) is given as “antibacterial, antifungal and antiamebic activity” and the chemical stability [1] is given as “chemically unstable”.
